Assay results: US20240381872A1, “SUBSTITUTED 2,3-DIHYDRO[1,3]THIAZOLO[4,5-B]PYRIDINES, SALTS THEREOF AND THEIR USE AS HERBICIDALLY ACTIVE SUBSTANCES” (BAYER AKTIENGESELLSCHAFT, priority 2021, published 2024)

Columns and labels:
Type in all cases: in vivo
Veronica persica (VERPE) [1] = experiment: Herbicidal post-emergence action, section E (Table E9); conditions: application rate 320 g/ha, visual assessment ca. 3 weeks after spraying; for pest or weed control at 320 g/ha: Veronica persica, 504 h, read-out: post-emergence activity against VERPE in %
Text: (§1) Seeds of mono- and dicotyledonous weed plants and crop plants were sown, in plastic or organic planting pots, in sandy loam, covered with soil and grown in a greenhouse under controlled growth conditions. 2 to 3 weeks after sowing, the test plants were sprayed in the single-leaf stage. The compounds according to the invention, formulated in form of wettable powders (WP) or as emulsifiable concentrates (EC), were sprayed onto the green plant parts as aqueous suspension or emulsion, with the addition of 0.5% of an additive, at an application rate of 600 l of water/ha (converted). The test plants were placed in the greenhouse for ca. 3 weeks under optimum growth conditions, and then the effect of the preparations was assessed visually in comparison with untreated controls (herbicidal effect in percent (%): 100% effect=plants have died off, 0% effect=as control plants).

Veronica persica (VERPE) [2] = experiment: Herbicidal pre-emergence action, section A (Table A10); conditions: for pest or weed control at 1280 g/ha / pest or weed control at 320 g/ha: Veronica persica, 504 h, read-out: pre-emergence activity against VERPE in %
Summary of the method: (§2)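 Visual scoring at approximately 3 weeks, relative to untreated pots, gave percent effect after compounds in WP or EC form were sprayed onto covering soil of sown seeds (sandy loam) in water with 0.5% additive at 600 l/ha, then kept in greenhouse.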

Setaria viridis (SETVI) = experiment: Herbicidal pre-emergence action, section A (Table A8); conditions: for pest or weed control at 320 g/ha / pest or weed control at 1280 g/ha: Setaria viridis, 504 h, read-out: pre-emergence activity against SETVI in %
Summary of the method: as §2

Kochia scoparia (KCHSC) = experiment: Herbicidal post-emergence action, section B (Table B4); conditions: visual rating about 3 weeks after treatment vs untreated controls; for pest or weed control at 1280 g/ha / pest or weed control at 320 g/ha: Bassia scoparia, post-emergence, 504 h, read-out: post-emergence activity against KCHSC in %
Summary of the method: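 Weeds were sown in sandy loam and grown in a greenhouse, then sprayed at the one-leaf stage 2 to 3 weeks after sowing. Compounds, formulated as WP or EC, went on as aqueous suspension or emulsion with 0.5% additive at 600 liters per hectare. Visual rating after about 3 weeks against untreated controls (100% = plants dead, 0% = like controls).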

[3] = system: Alopecurus myosuroides (ALOMY); experiment: Herbicidal pre-emergence action, section C (Table C2); conditions: visual grading after ca. 3 weeks vs untreated controls; for pest or weed control at 320 g/ha: Alopecurus myosuroides, pre-emergence, 504 h, read-out: pre-emergence activity against ALOMY in %
Text: Seeds of mono- and dicotyledonous weed plants and crop plants were sown, in plastic or organic planting pots, in sandy loam and covered with soil. The compounds according to the invention, formulated in the form of wettable powders (WP) or as emulsifiable concentrates (EC), were applied to the surface of the covering soil as aqueous suspension or emulsion, with the addition of 0.5% of an additive, at an application rate of 600 l of water/ha (converted). Following treatment, the pots were placed in a greenhouse and kept under optimum growth conditions for the test plants. The visual grading of the damage to the test plants was carried out after ca. 3 weeks in comparison to untreated controls (herbicidal effect in percent (%): 100% effect=plants have died off, 0% effect=as control plants).

Lolium rigidum (LOLRI) = experiment: Herbicidal pre-emergence action, section A (Table A5); conditions: visual grading after ca. 3 weeks vs untreated controls
Summary of the method: as §2

Poa annua (POAAN) = experiment: Herbicidal pre-emergence action, section A (Table A7); conditions: visual grading after ca. 3 weeks vs untreated controls; for pest or weed control at 320 g/ha / pest or weed control at 1280 g/ha: Poa annua, pre-emergence, 504 h, read-out: pre-emergence activity against POAAN in %
Summary of the method: as §2

Glycine max (GLXMA) = experiment: Post-emergence effects on crop plants, section F (Table F4); conditions: for percent crop plant damage at 80 g/ha / percent crop plant damage at 320 g/ha: Glycine max, 504 h, read-out: post-emergence activity against GLXMA in %; for percent crop plant damage at 80 g/ha / post-emergence activity against GLXMA in %: application rate 80 g/ha; for percent crop plant damage at 320 g/ha: application rate 320 g/ha; for post-emergence activity against GLXMA in %: crop plant damage
Summary of the method: (§3)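 Crop seeds were sown in sandy loam in pots and greenhouse-grown; at the single-leaf stage, 2 to 3 weeks after sowing, plants were sprayed with WP or EC formulations plus 0.5% additive at 600 l water/ha, 320 g/ha or below. Damage was scored visually about 3 weeks later versus untreated controls (0–100%).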

Zea mays (ZEAMX) = experiment: Post-emergence effects on crop plants, section F (Table F1); conditions: for post-emergence activity against ZEAMX in %: crop plant damage
Summary of the method: as §3

Oryza sativa (ORYZA) = experiment: Post-emergence effects on crop plants, section F (Table F3); conditions: application rate 320 g/ha; for percent crop plant damage at 320 g/ha: Oryza sativa, 504 h, read-out: post-emergence activity against ORYZA in %
Text: as §1, with “plants). Tables F1 to F4 below show the effects of selected compounds of the general formula (I) according to Table 1 on various crop plants and an application rate corresponding to 320 g/ha or below obtained by the experimental procedure mentioned above.” for “plants).”

[4] = system: Alopecurus myosuroides (ALOMY); experiment: Herbicidal post-emergence action, section E (Table E2); conditions: application rate 320 g/ha, assessed visually after ca. 3 weeks
Text: as §1

[5] = system: Polygonum convolvulus (POLCO); experiment: Herbicidal post-emergence action, section E (Table E7); conditions: visual assessment ca. 3 weeks after spraying; for post-emergence activity against POLCO in %: application rate 320 g/ha
Text: as §1

[6] = Lolium rigidum, pre-emergence, 504 h, application rate 1280 g/ha, read-out: pre-emergence activity against LOLRI in %
[7] = Zea mays, 504 h, application rate 320 g/ha, read-out: post-emergence activity against ZEAMX in %

SMILES	pest or weed control at 320 g/ha (Veronica persica (VERPE) [1]) [%]	pest or weed control at 320 g/ha (Setaria viridis (SETVI); application rate 320 g/ha) [%]	pest or weed control at 320 g/ha ([3]; application rate 320 g/ha) [%]	pest or weed control at 1280 g/ha (Lolium rigidum (LOLRI); [6]) [%]	percent crop plant damage at 80 g/ha (Glycine max (GLXMA)) [%]	percent crop plant damage (phytotoxicity) on Zea mays, post-emergence at 320 g/ha (Zea mays (ZEAMX); [7]) [%]	percent crop plant damage at 320 g/ha (Oryza sativa (ORYZA)) [%]	pre-emergence activity against SETVI in % (Setaria viridis (SETVI); application rate 320 g/ha) [%]	post-emergence activity against KCHSC in % (Kochia scoparia (KCHSC); application rate 320 g/ha) [%]	post-emergence activity against POLCO in % [5] [%]	pre-emergence activity against POAAN in % (Poa annua (POAAN); application rate 320 g/ha) [%]	pest or weed control at 320 g/ha (Kochia scoparia (KCHSC); application rate 320 g/ha) [%]	pre-emergence activity against VERPE in % (Veronica persica (VERPE) [2]; application rate 1280 g/ha) [%]	post-emergence activity against ZEAMX in % (Zea mays (ZEAMX); application rate 320 g/ha) [%]	further results
CC1(C(=O)N2CSc3cc(Br)c(-c4ccccc4Cl)nc32)CC(Cl)=NO1 (centres unmarked) [Example I-141, [6-bromo-5-(2-chlorophenyl)[1,3]thiazolo[4,5-b]pyridin-3(2H)-yl](3-chloro-5-methyl-4,5-dihydro-1,2-oxazol-5-yl)methanone]	80	100	80	100	20	0									pest or weed control at 1280 g/ha (Veronica persica (VERPE) [2]; application rate 1280 g/ha): 90%; pest or weed control at 1280 g/ha (Kochia scoparia (KCHSC); application rate 1280 g/ha): 90%; pest or weed control at 320 g/ha (Poa annua (POAAN); application rate 320 g/ha): 100%
CC(=O)N1CSc2cc(Br)c(-c3ccccc3Cl)nc21 [Example I-055, 1-[6-bromo-5-(2-chlorophenyl)[1,3]thiazolo[4,5-b]pyridin-3(2H)-yl]ethanone]			80	100		0	0								pest or weed control at 320 g/ha (Veronica persica (VERPE) [2]; application rate 320 g/ha): 90%; pest or weed control at 1280 g/ha (Setaria viridis (SETVI); application rate 1280 g/ha): 100%; pest or weed control at 1280 g/ha (Kochia scoparia (KCHSC); application rate 1280 g/ha): 90%; pest or weed control at 320 g/ha (Poa annua (POAAN); application rate 320 g/ha): 100%; percent crop plant damage at 320 g/ha (Glycine max (GLXMA)): 20%
Cc1ccccc1-c1nc2c(cc1C)SCN2C(=O)C1(C)CC(Cl)=NO1 (centres unmarked) [Example I-137]								100	90	80	100				post-emergence activity against VERPE in % (Veronica persica (VERPE) [1]): 80%; pre-emergence activity against VERPE in % (Veronica persica (VERPE) [2]; application rate 320 g/ha): 90%; pre-emergence activity against ALOMY in % ([3]; application rate 80 g/ha): 80%; post-emergence activity against ALOMY in % [4]: 80%; pre-emergence activity against LOLRI in % (Lolium rigidum (LOLRI); application rate 1280 g/ha): 100%; post-emergence activity against ZEAMX in % (Zea mays (ZEAMX); application rate 80 g/ha): 0%
CCOCCS(=O)(=O)N1C[S+]([O-])c2cc(C)c(-c3ccccc3F)nc21 (centres unmarked) [Example I-127]	90	100										90			pest or weed control at 1280 g/ha (Veronica persica (VERPE) [2]; application rate 1280 g/ha): 90%; pest or weed control at 320 g/ha ([4]; Alopecurus myosuroides, post-emergence, 504 h, read-out: post-emergence activity against ALOMY in %): 90%; pest or weed control at 320 g/ha (Lolium rigidum (LOLRI); Lolium rigidum, pre-emergence, 504 h, application rate 320 g/ha, read-out: pre-emergence activity against LOLRI in %): 100%; pest or weed control at 80 g/ha ([5]; Fallopia convolvulus, 504 h, application rate 80 g/ha, read-out: post-emergence activity against POLCO in %): 90%; percent crop plant damage (phytotoxicity) on Zea mays, post-emergence at 80 g/ha (Zea mays (ZEAMX); Zea mays, 504 h, application rate 80 g/ha, read-out: post-emergence activity against ZEAMX in %): 20%
Cc1cc2c(nc1-c1cccc(C)c1F)NCS2 [Example I-113]								100	90				90	0	pre-emergence activity against LOLRI in % (Lolium rigidum (LOLRI); application rate 1280 g/ha): 100%; pre-emergence activity against POAAN in % (Poa annua (POAAN); application rate 1280 g/ha): 100%; post-emergence activity against GLXMA in % (Glycine max (GLXMA)): 0%
BN1CSc2cc(Br)c(-c3ccccc3C)nc21 [Example I-011]										80	100		90	0	post-emergence activity against ORYZA in % (Oryza sativa (ORYZA); crop plant damage): 0%; pre-emergence activity against SETVI in % (Setaria viridis (SETVI); application rate 1280 g/ha): 90%; post-emergence activity against KCHSC in % (Kochia scoparia (KCHSC); application rate 1280 g/ha): 90%; pre-emergence activity against ALOMY in % ([3]; application rate 320 g/ha): 90%; pre-emergence activity against LOLRI in % (Lolium rigidum (LOLRI); application rate 320 g/ha): 100%
Clc1ccccc1-c1nc2c(cc1Br)SCN2 [Example I-041, 6-bromo-5-(2-chlorophenyl)-2,3-dihydro[1,3]thiazolo[4,5-b]pyridine]		100	80	100	0	20	0					90			pest or weed control at 320 g/ha (Veronica persica (VERPE) [2]; application rate 320 g/ha): 90%; pest or weed control at 1280 g/ha (Poa annua (POAAN); application rate 1280 g/ha): 100%
CCc1ccccc1-c1nc2c(cc1C)[S+]([O-])CN2 (centres unmarked) [Example I-047]	80				0	0	0					90			pest or weed control at 1280 g/ha (Setaria viridis (SETVI); application rate 1280 g/ha): 100%; pest or weed control at 1280 g/ha (Poa annua (POAAN); application rate 1280 g/ha): 100%
CC(C)C(=O)N1C[S+]([O-])c2cc(Br)c(-c3ccccc3)nc21 (centres unmarked) [Example I-067]	90		90			0	0								percent crop plant damage at 320 g/ha (Glycine max (GLXMA)): 10%
Cc1cc2c(nc1-c1ccccc1)N(C(=O)C1(C)CC(Cl)=NO1)CS2 (centres unmarked) [Example I-088]								100	90	90	100		90	0	post-emergence activity against VERPE in % (Veronica persica (VERPE) [1]): 80%; pre-emergence activity against ALOMY in % ([3]; application rate 320 g/ha): 90%; pre-emergence activity against LOLRI in % (Lolium rigidum (LOLRI); application rate 320 g/ha): 100%; post-emergence activity against GLXMA in % (Glycine max (GLXMA)): 0%
